Source: EP1507010B1, “Control of the gene expression in eukaryotic cells” (priority 1999, dated 2001)

Legend:
[1] = molecular target: T1, HA-VP16-TraR fusion (TraR from Agrobacterium strain A348 fused to VP16 activation domain; pMON53030) (UniProt P06492+P33905); test: Transient GUS reporter assay in transfected carrot protoplasts with VP16-TraR effector; format: cell-based, Agrobacterium tumefaciens; set-up: + inducer (average of the GUS activities) / + inducer (GUS activity, average) / GUS activity, average (with AHL or analog at the stated concentration) / GUS activity, average (+ inducer) / GUS activity, average: unit not given here; settings: for GUS activity, average ('- inducer'): 1 µM of the AHL or analog; for GUS activity, average ('- inducer') / GUS activity, average (with AHL or analog at the stated concentration) / GUS activity, average (+ inducer) / GUS activity, average / fold +/-: reporter TraA8(4X)-GUS + 35S-VP16-TraR; for GUS activity, average (with AHL or analog at the stated concentration): 5 µM of the AHL or analog; for GUS activity, average: 25 µM of the AHL or analog; for + inducer (GUS activity, average): 12.5 µM C8-AHL
T1 construct: PCR fragments containing open reading frames are cloned into an expression construct; expressed in transfected cells; host or cells: carrot protoplasts from cell suspension culture, transient transfection
From the text: Carrot protoplasts were transfected with the TraA8 (4X)- GUS reporter construct with the 35S-VP16-TraR activator gene and tested for GUS induction by application of wild type AHL and the various AHL analogs described in Example 8. Table 8: Transient assays in carrot protoplasts of AHL analogs

TraM = settings: 12.5 µM C8-AHL; reporter TraA8(3X), cl.4 (60 µg) + TraM
From the text: Plasmids for transfection were isolated and purified using Megaprep plasmid DNA isolation kit (Qiagen).

[2] = tested on: VP16-TraR fusion (pMON53077); test: GUS activity in transgenic Arabidopsis plants carrying GUS reporter and 35S-VP16-TraR activator genes; format: in vivo, Agrobacterium tumefaciens; settings: detached caulline leaves, 24 hours in MS medium with 100 µM HSL
Procedure: Transgenic Arabidopsis plants containing TraA8(3X)-GUS reporter and 35S-VP16-TraR activator genes (pMON53077) were analyzed for induction of GUS activity. […] GUS assays were conducted as described by Jefferson et al. (supra).
In addition, detached leaves incubated for 24 hours in MS medium with or without 100 µM HSL were visualized for induction of GUS activity after staining.

[3] = tested on: HA-VP16-EsaR fusion (pMON53005); test: Transient GUS reporter assay in transfected carrot protoplasts with VP16-EsaR effector; format: cell-based, Erwinia sterwartii; settings: for + inducer (average of the GUS activities): 25 [i M] OOHL, 36 hrs
Procedure: Plasmids for transfection were isolated and purified using Megaprep plasmid DNA isolation kit (Qiagen). Carrot protoplasts for transfections were prepared from carrot cell suspension culture and transfected with purified DNA as described (Ulmasov et al., Plant Cell 7:1611-1623, 1995). Briefly, 10 ì g of the reporter plasmid and 5 ìg of the effector plasmid were incubated with 10^6 protoplasts for five minutes at the room temperature in the presence of polyethylene glycol-calcium solution. After diluting approximately 10-fold with the culture medium, the protoplasts were incubated in the dark for 36 hours either in the presence or absence of the inducer 3-oxohexanoyl-homoserine lactone (OHHL, racemic mixture of the L- and D-isomers, purchased from Sigma Chemical Co., St Louis, MO). After incubation, protoplasts were collected by low-speed centrifugation, lysed and the level of GUS activity was measured using fluorometric GUS assay (Jefferson et al., EMBO J. 6:3901-3907, 1987).
Ten µg of the reporter plasmid (pMON53031), and indicated amount of the 35S effector plasmid per reaction was used for transfection in triplicate.

[4] = tested on: TraR (expressed from GAL1 galactose inducible promoter, pGAL415TraR); test: β-galactosidase reporter assay (chemiluminescent) in yeast expressing TraR; format: cell-based, Agrobacterium tumefaciens; settings: 50µM C8-HSL, 5 hrs of growth on galactose; strain YPH499, cl.5 and 6; minimal promoter with 3 copies of TraA8 element
[5] = ratio of GUS activity at 12.5 µM to that at 5 µM
[6] = ratio of GUS activity at 75 µM to that at 25 µM
[7] = ratio of GUS activity at […] to that at 1 µM
[8] = 25 [i M] inducer (OOHL, or C6), reporter pMON53031, pMON53030 60 µg, 36 hrs

CCCCCCC(C(C)=O)C(=O)N[C@@H](CCO)C(=O)O (stereo partly drawn) [compound 26, N-(α-Hexyl-b-ketobutanoyl)-(S)-homoserine]
GUS activity, average ('- inducer') [1]: 184.7
GUS activity, average (with AHL or analog at the stated concentration) [1]: 387.6
GUS activity, average (+ inducer) ([1]; 12.5 µM of the AHL or analog): 1812.5
GUS activity, average [1]: 1515.3
GUS activity, average (+ inducer) ([1]; 75 µM of the AHL or analog): 2879.9
fold +/- [1, 5]: 4.7 fold
fold +/- [1, 6]: 1.9 fold
fold +/- [1, 7]: 1.2 fold

CCCCCC(=O)C(C)C(=O)N[C@@H](CCO)C(=O)O (stereo partly drawn) [compound 7, N-(α-Methyl-b-ketooctanoyl)-(S)-homoserine]
GUS activity, average ('- inducer') [1]: 180.2
GUS activity, average (with AHL or analog at the stated concentration) [1]: 1071.5
GUS activity, average (+ inducer) ([1]; 12.5 µM of the AHL or analog): 2746.0
GUS activity, average [1]: 2486.3
GUS activity, average (+ inducer) ([1]; 75 µM of the AHL or analog): 3209.7
fold +/- [1, 5]: 2.6 fold
fold +/- [1, 6]: 1.3 fold
fold +/- [1, 7]: 1.8 fold

3-oxooctanoyl-L-homoserine lactone [C8-HSL]
+ inducer (GUS activity, average) (TraM): 98.0
induction of GUS activity by histochemical GUS staining [2]: uniform induced activity
+ inducer (average of the GUS activities) ([3]; pMON53035 (lasB box 3X-GUS) + pMON53005 60 µg): 4.9
+ inducer (average of the GUS activities) ([3]; reporter pMON53031, pMON53005 60 µg): 764.1
induction of β-gal activity in cell extracts [4]: strong induction
GUS activity, average ('- inducer') [1]: 1263.2
GUS activity, average (with AHL or analog at the stated concentration) [1]: 3018.7
+ inducer (GUS activity, average) ([1]; reporter Tra box(3X), cl.5, second transfection): 1576.2
+ inducer (GUS activity, average) ([1]; reporter TraA1 (3X), cl.35, second transfection): 1560.4
+ inducer (GUS activity, average) ([1]; reporter TraA2(3X), cl.43, second transfection): 2057.1
+ inducer (GUS activity, average) ([1]; reporter TraA3(3X), cl.4, second transfection): 100.1
+ inducer (GUS activity, average) ([1]; reporter TraA4(3X), cl.23, second transfection): 109.6
+ inducer (GUS activity, average) ([1]; reporter TraA5(3X), cl.2, second transfection): 82.3
+ inducer (GUS activity, average) ([1]; reporter TraA6(3X), cl.21, second transfection): 3.2
+ inducer (GUS activity, average) ([1]; reporter TraA7(3X), cl.15, second transfection): 236.8
+ inducer (GUS activity, average) ([1]; reporter TraA8(3X), cl.4 (25µg) + TraR + CAT): 762.2
+ inducer (GUS activity, average) ([1]; reporter TraA8(3X), cl.4 (25µg) + TraR + TraM co-transfected): 11.8
+ inducer (GUS activity, average) ([1]; reporter TraA8(3X), cl.4 (25µg) + TraR + TraS co-transfected): 248.3
+ inducer (GUS activity, average) ([1]; reporter TraA8(3X), cl.4 (60 µg), effector printed as TraR): 1665.3
+ inducer (GUS activity, average) ([1]; reporter TraA8(3X), cl.4, second transfection): 1759.1
+ inducer (GUS activity, average) ([1]; reporter TraA8(4X), cl. 16 + HA-VP16-TraR): 1015.3
+ inducer (GUS activity, average) ([1]; reporter TraA10(3X), cl.17, second transfection): 641.1
+ inducer (GUS activity, average) ([1]; reporter TraA-1(3X), cl.14, second transfection): 26.7
+ inducer (GUS activity, average) ([1]; reporter tra box (6X), cl.7, first transfection): 987.4
+ inducer (GUS activity, average) ([1]; reporter traA1(3X), cl.35, first transfection): 1941.5
+ inducer (GUS activity, average) ([1]; reporter traA2(3X), cl.43, first transfection): 2281.6
+ inducer (GUS activity, average) ([1]; reporter traA3(3X), cl.4, first transfection): 116.5
+ inducer (GUS activity, average) ([1]; reporter traA4(3X), cl.23, first transfection): 122.8
+ inducer (GUS activity, average) ([1]; reporter traA5(3X), cl.2, first transfection): 20.5
+ inducer (GUS activity, average) ([1]; reporter traA6(3X), cl.21, first transfection): 64.6
+ inducer (GUS activity, average) ([1]; reporter traA7(3X), cl.15, first transfection): 234.8
+ inducer (GUS activity, average) ([1]; reporter traA8(3X), cl.4, first transfection): 888.0
+ inducer (GUS activity, average) ([1]; reporter traA9(3X), cl.8, first transfection): 63.7
GUS activity, average (+ inducer) ([1]; 12.5 µM of the AHL or analog): 4142.8
GUS activity, average [1]: 7642.9
GUS activity, average ([1]; listed as CB-HSL): 7523.9
GUS activity, average (+ inducer) ([1]; 75 µM of the AHL or analog): 7975.7
+ inducer (average of the GUS activities) ([1]; 0.1 [i M] OOHL, reporter pMON53031, pMON53030 60 µg, 36 hrs): 355.9
+ inducer (average of the GUS activities) ([1]; 0.5 [i M] OOHL, reporter pMON53031, pMON53030 60 µg, 36 hrs): 698
+ inducer (average of the GUS activities) ([1]; 1 [i M] OOHL, reporter pMON53031, pMON53030 60 µg, 36 hrs): 458.2
+ inducer (average of the GUS activities) ([1]; 2.5 [i M] OOHL, reporter pMON53031, pMON53030 60 µg, 36 hrs): 1487.8
+ inducer (average of the GUS activities) ([1]; 5 [i M] OOHL, reporter pMON53031, pMON53030 60 µg, 36 hrs): 1474.2
+ inducer (average of the GUS activities) ([1]; 12.5 [i M] OOHL, reporter pMON53031, pMON53030 60 µg, 36 hrs): 1526.2
+ inducer (average of the GUS activities) ([1]; 25 [i M] OOHL, reporter pMON53031, pMON53030 30 µg + CAT, 36 hrs): 215.7
+ inducer (average of the GUS activities) [1, 8]: 1393.2
+ inducer (average of the GUS activities) ([1]; 50 [i M] OOHL, reporter pMON53031, pMON53030 60 µg, 36 hrs): 1595.5
+ inducer (average of the GUS activities) ([1]; 100 [i M] OOHL, reporter pMON53031 (traII box 3X-GUS) 10 µg, pMON53030 60 µg, 36 hrs): 1446.4

CCCCCC(=O)C(CC)C(=O)N[C@@H](CCO)C(=O)O (stereo partly drawn) [compound 19, N-(α-Ethyl-b-ketooctanoyl)-(S)-homoserine]
GUS activity, average ('- inducer') [1]: 469.6
GUS activity, average (with AHL or analog at the stated concentration) [1]: 2239.4
GUS activity, average (+ inducer) ([1]; 12.5 µM of the AHL or analog): 5377.3
GUS activity, average [1]: 6732.3
GUS activity, average (+ inducer) ([1]; 78 µM as printed): 7569.1
fold +/- [1, 5]: 2.4 fold
fold +/- ([1]; ratio of GUS activity at 78 µM to that at 25 µM): 1.1 fold
fold +/- [1, 7]: 2.8 fold

CCCCCC(=O)C(C)(C)C(=O)N[C@@H](CCO)C(=O)O [compound 16, N-(α,α-Dimethyl-b-ketooctanoyl)-(S)-homoserine]
GUS activity, average ('- inducer') [1]: 111.8
GUS activity, average (with AHL or analog at the stated concentration) [1]: 229.7
GUS activity, average (+ inducer) ([1]; 12.5 µM of the AHL or analog): 509.8
GUS activity, average [1]: 1426.6
GUS activity, average (+ inducer) ([1]; 75 µM of the AHL or analog): 4719.8
fold +/- [1, 5]: 2.2 fold
fold +/- [1, 6]: 3.3 fold
fold +/- [1, 7]: 2.8 fold

CCCCCC(=O)C(CCCC)C(=O)N[C@@H](CCO)C(=O)O (stereo partly drawn) [compound 25, N-(α-Butyl-b-ketooctanoyl)-(S)-homoserine]
GUS activity, average ('- inducer') [1]: 256.9
GUS activity, average (with AHL or analog at the stated concentration) [1]: 309.3
GUS activity, average (+ inducer) ([1]; 12.5 µM of the AHL or analog): 284.7
GUS activity, average [1]: 224.2
GUS activity, average (+ inducer) ([1]; 75 µM of the AHL or analog): 252.9
fold +/- [1, 5]: 0.9 fold
fold +/- [1, 6]: 1.1 fold
fold +/- [1, 7]: 2.1 fold

CCCC(=O)CC(=O)N[C@H]1CCOC1=O [C6, N-(3-oxohexanoyl)-L-homoserine lactone]
activation by the VP16-EsaR construct diminished by addition of the inducer ([3]; reporter esaR box (4X)-GUS pMON53009, dose-dependent, concentration not given, 36 hours): up to 3.3 fold
Fold induction ([1]; 25 [i M] inducer (OOHL, or C6) vs no inducer, reporter pMON53031, pMON53030 60 µg, 36 hrs, 25 µM): 1.6 fold
+ inducer (average of the GUS activities) [1, 8]: 568.5
